Among the data in US20250228239A1, “MOLECULES HAVING PESTICIDAL UTILITY, AND INTERMEDIATES, COMPOSITIONS, AND PROCESSES, RELATED THERETO” (priority 2024, published 2025) are pest or weed control, YFM and YFM rating values, retold here.

Each structure is given as a SMILES string. Like-named read-outs stand apart in the source and are kept apart here.

Holding throughout (assay type): in vivo
The test system of test [1] is Beet Armyworm (Spodoptera exigua, LAPHEG). In words: Bioassays on Beet Armyworm (BAW), 128-well diet tray assay. To be noted: Spodoptera exigua. The method, boiled down:
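Mortality of second-instar larvae (1–5/well) on artificial diet treated with 50 μg/cm^2 compound, read after 5–7 days at 25° C.; values are means of eight wells.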

In test [2] the test system is Cabbage Looper (Trichoplusia ni, TRIPNI). In words: Bioassays on Cabbage Looper (CL), 128-well diet tray assay. To be noted: Trichoplusia ni. The method, boiled down: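 Diet tray, 2nd instar, 1–5 larvae/well; 50 μg/cm^2 compound surface-applied (acetone:water 90:10), dried; 8 wells/treatment; 25° C, 14:10 L:D, 5–7 d; % mortality, mean of 8 wells.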
The test system of test [3] is Yellow Fever Mosquito (Aedes aegypti, AEDSAE). Conditions: for YFM rating: Table ABC / ABC-DP rating. The method, boiled down: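 Compounds from DMSO master plates (4000 ppm stock) diluted in 90:10 water/acetone, then dispensed into six replicate plates and infested with ~1-day-old Aedes aegypti larvae in liver-powder water. Held covered at room temperature for 3 days; each well scored for larval mortality and graded on a rating scale.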

Where [4] appears, read: Beet Armyworm, rating class, read-out: BAW.
[5] abbreviates: Cabbage Looper, rating class, read-out: CL.
The mark [6] stands for this setting: Yellow Fever Mosquito, rating class.
[7] abbreviates: Beet Armyworm, Table ABC / ABC-DP rating, read-out: BAW rating.
The mark [8] stands for this setting: Cabbage Looper, Table ABC / ABC-DP rating, read-out: CL rating.
Setting [9] is: Table ABC: Biological Results, species BAW, read-out: BAW.
Setting [10] is: Table ABC: Biological Results, species CL, read-out: CL.
[11] abbreviates: Table ABC: Biological Results, species YFM.

As for `CC(C)C(=O)Nc1c(F)ccc(NC(=O)c2cc(NC(=O)[C@H]3[C@H](c4ccc(Cl)c(Cl)c4)C3(Cl)Cl)ccc2Cl)c1F` [F1606, 2-Chloro-5-((1R,3R)-2,2-dichloro-3-(3,4-dichlorophenyl)cyclopropane-1-carboxamido)-N-(2,4-difluoro-3-isobutyramidophenyl)benzamide], the pest or weed control at 50 µg/cm2 in test [1] (setting [4]) and in test [2] (setting [5]) was 50 to 100% in each case. Also, the YFM entry in test [3] (setting [6]) is reported as “A (80–100)”.
`CC(OC(F)(F)F)C(=O)Nc1c(F)ccc(NC(=O)c2cc(NC(=O)[C@H]3[C@H](c4ccc(F)c(Cl)c4)C3(Cl)Cl)ccc2Cl)c1F` (stereo partly drawn) [F1769, 2-Chloro-5-((1R,3R)-2,2-dichloro-3-(3-chloro-4-fluorophenyl)cyclopropane-1-carboxamido)-N-(2,4-difluoro-3-(2-(trifluoromethoxy)propanamido)phenyl)benzamide]: the pest or weed control at 50 µg/cm2 in test [1] (setting [7]) and in test [2] (setting [8]) was 50 to 100% in each case. In test [3] (Yellow Fever Mosquito), the YFM rating result was “A (80–100)”.
As to `CC(=O)Nc1c(F)ccc(NC(=O)c2cc(NC(=O)[C@H]3[C@H](c4cc(Cl)cc(Cl)c4)C3(Cl)Cl)ccc2Cl)c1Cl` (relative stereo) [F1160, trans-N-(3-acetamido-2-chloro-4-fluorophenyl)-2-chloro-5-(2,2-dichloro-3-(3,5-dichlorophenyl)cyclopropane-1-carboxamido)benzamide], the pest or weed control at 50 µg/cm2 in test [1] (setting [9]) and in test [2] (setting [10]) was 50 to 100% each time. In addition, in test [3] (setting [11]), the YFM result is on record as “A (80–100)”.
Regarding `CN(NC(=O)c1cc(NC(=O)[C@H]2[C@H](c3cc(Cl)c(Cl)c(Cl)c3)C2(Cl)Cl)ccc1Cl)c1ccccc1` [F2511, (1R,3R)-2,2-Dichloro-N-(4-chloro-3-(2-methyl-2-phenylhydrazine-1-carbonyl)phenyl)-3-(3,4,5-trichlorophenyl)cyclopropane-1-carboxamide], the pest or weed control at 50 µg/cm2 in test [1] (setting [7]) and in test [2] (setting [8]) was 50 to 100% each time. The YFM rating result in test [3] (Yellow Fever Mosquito) is on record as “A (80–100)”.
With `CN(C(=O)C(F)(F)F)c1c(F)ccc(NC(=O)c2cc(NC(=O)[C@H]3[C@H](c4ccc(Cl)c(Cl)c4)C3(Cl)Cl)ccc2Cl)c1F` [F1614, 2-Chloro-5-((1R,3R)-2,2-dichloro-3-(3,4-dichlorophenyl)cyclopropane-1-carboxamido)-N-(2,4-difluoro-3-(2,2,2-trifluoro-N-methylacetamido)phenyl)benzamide], the pest or weed control at 50 µg/cm2 in test [1] (setting [4]) and in test [2] (setting [5]) was 50 to 100% in each case. Besides, the YFM result in test [3] (setting [6]) is “A (80–100)”.
As to `O=C(NCC(F)(F)F)c1cc(NC(=O)[C@H]2[C@@H](c3cc(F)c(Cl)c(Cl)c3)C2(Cl)Cl)ccc1Cl` (relative stereo) [F2007, cis-2-Chloro-5-(2,2-dichloro-3-(3,4-dichloro-5-fluorophenyl)cyclopropane-1-carboxamido)-N-(2,2,2-trifluoroethyl)benzamide], the pest or weed control at 50 µg/cm2 in test [1] (setting [7]) and in test [2] (setting [8]) was 50 to 100% in each case. Besides, the YFM rating entry in test [3] (Yellow Fever Mosquito) is “A (80–100)”.
As to `O=C(NCC(F)(F)c1ccccc1)c1cc(NC(=O)[C@H]2[C@H](c3cc(Cl)cc(Cl)c3)C2(Cl)Cl)cc(F)c1Cl` (relative stereo) [F2091, trans-2-Chloro-5-(2,2-dichloro-3-(3,5-dichlorophenyl)cyclopropane-1-carboxamido)-N-(2,2-difluoro-2-phenylethyl)-3-fluorobenzamide], the pest or weed control at 50 µg/cm2 in test [1] (setting [7]) and in test [2] (setting [8]) was 50 to 100% each time. In addition, the YFM rating entry in test [3] (Yellow Fever Mosquito) is “A (80–100)”.
Take `O=C(Nc1ccc(F)c(NC(=O)C(Cl)Cl)c1F)c1cc(NC(=O)[C@H]2[C@H](c3ccc(Cl)c(Cl)c3)C2(Cl)Cl)ccc1Cl` [F1252, 2-Chloro-5-((1R,3R)-2,2-dichloro-3-(3,4-dichlorophenyl)cyclopropane-1-carboxamido)-N-(3-(2,2-dichloroacetamido)-2,4-difluorophenyl)benzamide]: the pest or weed control at 50 µg/cm2 in test [1] (setting [9]) and in test [2] (setting [10]) was 50 to 100% throughout. Moreover, the YFM entry in test [3] (setting [11]) is listed as “A (80–100)”.
`O=C(Nc1ccc(F)c(NC(=O)C(F)(F)F)c1)c1cc(NC(=O)[C@H]2[C@H](c3ccc(F)c(C(F)(F)F)c3)C2(Cl)Cl)ccc1Cl` [F1815, 2-Chloro-5-((1R,3R)-2,2-dichloro-3-(4-fluoro-3-(trifluoromethyl)phenyl)cyclopropane-1-carboxamido)-N-(4-fluoro-3-(2,2,2-trifluoroacetamido)phenyl)benzamide]: the pest or weed control at 50 µg/cm2 in test [1] (setting [7]) and in test [2] (setting [8]) was 50 to 100% each time. In addition, the YFM rating result in test [3] (Yellow Fever Mosquito) is reported as “A (80–100)”.
In the case of `O=C(NCC(F)(F)C(F)(F)F)c1c(F)ccc(NC(=O)[C@H]2[C@H](c3ccc(F)c(Cl)c3)C2(Cl)Cl)c1F` (relative stereo) [F2018, trans-3-(2,2-Dichloro-3-(3-chloro-4-fluorophenyl)cyclopropane-1-carboxamido)-2,6-difluoro-N-(2,2,3,3,3-pentafluoropropyl)benzamide], the pest or weed control at 50 µg/cm2 in test [1] (setting [7]) and in test [2] (setting [8]) was 50 to 100% throughout. In addition, the YFM rating entry in test [3] (Yellow Fever Mosquito) is reported as “A (80–100)”.
With `O=C(Nc1c(F)ccc(NC(=O)C(F)(F)F)c1F)c1cc(NC(=O)[C@H]2[C@H](c3ccc(F)c(C(F)(F)F)c3)C2(Cl)Cl)ccc1F` [F1560, 5-((1R,3R)-2,2-Dichloro-3-(4-fluoro-3-(trifluoromethyl)phenyl)cyclopropane-1-carboxamido)-N-(2,6-difluoro-3-(2,2,2-trifluoroacetamido)phenyl)-2-fluorobenzamide], the pest or weed control at 50 µg/cm2 in test [1] (setting [4]) and in test [2] (setting [5]) was 50 to 100% in each case. Also, in test [3] (setting [6]), the YFM result was “A (80–100)”.
Consider `CCC1CCC(C(=O)Nc2c(F)ccc(NC(=O)c3cc(NC(=O)[C@H]4[C@H](c5ccc(F)c(C(F)(F)F)c5)C4(Cl)Cl)ccc3Cl)c2F)O1` (stereo partly drawn) [F1626, N-(3-(2-Chloro-5-((1R,3R)-2,2-dichloro-3-(4-fluoro-3-(trifluoromethyl)phenyl)cyclopropane-1-carboxamido)benzamido)-2,6-difluorophenyl)-5-ethyltetrahydrofuran-2-carboxamide], for which the pest or weed control at 50 µg/cm2 in test [1] (setting [4]) and in test [2] (setting [5]) was 50 to 100% throughout. In addition, the YFM result in test [3] (setting [6]) was “A (80–100)”.
Consider `Cc1cc(NCc2ccc(C#N)cc2)ccc1NC(=O)c1cc(NC(=O)[C@H]2[C@H](c3cc(Cl)cc(Cl)c3)C2(Cl)Cl)ccc1Cl` (relative stereo) [F1040, trans-2-Chloro-N-(4-((4-cyanobenzyl)amino)-2-methylphenyl)-5-(2,2-dichloro-3-(3,5-dichlorophenyl)cyclopropane-1-carboxamido)benzamide], for which the pest or weed control at 50 µg/cm2 in test [1] (setting [9]) and in test [2] (setting [10]) was 50 to 100% throughout. Further, in test [3] (setting [11]), the YFM result was “A (80–100)”.
On to `Nc1c(F)ccc(NC(=O)c2cc(NC(=O)[C@H]3[C@H](c4cc(Br)cc(S(F)(F)(F)(F)F)c4)C3(Cl)Cl)ccc2Cl)c1F` (relative stereo) [F1042, trans-N-(3-Amino-2,4-difluorophenyl)-5-(3-(3-bromo-5-(pentafluoro-λ^6-sulfanyl)phenyl)-2,2-dichlorocyclopropane-1-carboxamido)-2-chlorobenzamide], for which the pest or weed control at 50 µg/cm2 in test [1] (setting [9]) and in test [2] (setting [10]) was 50 to 100% each time. The YFM result in test [3] (setting [11]) is on record as “A (80–100)”.
As to `O=C(CC1CC1)Nc1c(F)ccc(NC(=O)c2cc(NC(=O)[C@H]3[C@H](c4cc(Cl)c(Cl)c(Cl)c4)C3(Cl)Cl)ccc2Cl)c1F` [F1653, 2-Chloro-N-(3-(2-cyclopropylacetamido)-2,4-difluorophenyl)-5-((1R,3R)-2,2-dichloro-3-(3,4,5-trichlorophenyl)cyclopropane-1-carboxamido)benzamide], the pest or weed control at 50 µg/cm2 in test [1] (setting [4]) and in test [2] (setting [5]) was 50 to 100% each time. The YFM entry in test [3] (setting [6]) was “A (80–100)”.
As to `O=C(Nc1ccc(F)c(NC(=O)C2CCCO2)c1F)c1cc(NC(=O)[C@H]2[C@H](c3ccc(F)c(C(F)(F)F)c3)C2(Cl)Cl)ccc1Cl` (stereo partly drawn) [F1521, N-(3-(2-Chloro-5-((1R,3R)-2,2-dichloro-3-(4-fluoro-3-(trifluoromethyl)phenyl)cyclopropane-1-carboxamido)benzamido)-2,6-difluorophenyl)tetrahydrofuran-2-carboxamide], the pest or weed control at 50 µg/cm2 in test [1] (setting [4]) and in test [2] (setting [5]) was 50 to 100% each time. In addition, in test [3] (setting [6]), the YFM result was “A (80–100)”.
